For data set [1], the system named is Staphylococcus aureus. Put plainly: Antibacterial activity against methicillin-resistant Staphylococcus aureus assessed as reduction in bacterial growth. The class given is functional.
Data set [2] is described as follows: Hemolytic activity in human RBC. Particulars: human red blood cells (erythrocytes). The format is toxicity, cell-based, Erythrocyte.
For data set [3], the system named is Staphylococcus epidermidis. Kind of data set: Antibacterial activity against methicillin-resistant Staphylococcus epidermidis assessed as reduction in bacterial growth. The class given is functional.
In data set [4] the test system is Enterococcus faecium. Kind of data set: Antibacterial activity against vancomycin-resistant Enterococcus faecium assessed as reduction in bacterial growth. The class given is functional.
For data set [5], the system named is Escherichia coli. Kind of data set: Antibacterial activity against Escherichia coli assessed as reduction in bacterial growth. The class given is functional.
The subject of data set [6] is Klebsiella pneumoniae. Kind of data set: Antibacterial activity against Klebsiella pneumoniae assessed as reduction in bacterial growth. The format is functional.
The subject of data set [7] is Pseudomonas aeruginosa. Kind of data set: Antibacterial activity against Pseudomonas aeruginosa assessed as reduction in bacterial growth. The class given is functional.
Data set [8] has as its system Staphylococcus aureus. Put plainly: In vivo antibacterial activity against methicillin-resistant Staphylococcus aureus infected in murine assessed as log reduction in bacterial burden. The format is functional. Details: scale not given: the % may be the effect or the level left.

Among the data in ChEMBL document CHEMBL5214908, “Small Scorpion-like Peptidomimetics: Potential Broad-Spectrum Membrane Active Antimicrobials without Detectable Resistance” (J Med Chem, 2021) are MIC, HC50 and Activity values, retold here.

Molecules are shown by their SMILES. Values after ≈ are worked out from the molar mass of the structure shown.

As for `CCCCCCCCCNC(=O)[C@H](CCCCN)NC(=O)c1ccc(C(=O)N[C@@H](CCCCN)C(=O)NCCCCCCCCC)cc1`, in data set [1], the MIC – broadly, the smallest concentration in the dilution series that meets the test's criterion for growth inhibition – was 0.75 mg/L (≈ 1.11 µM). Further, in data set [2], the HC50 (as a rule, the concentration giving 50% haemolysis) was 180 µg/mL.
As to `NCCCC[C@H](N)CN(CC(=O)Nc1cc(NC(=O)CN(C[C@@H](N)CCCCN)C(=O)CC23CC4CC(CC(C4)C2)C3)cc(C(=O)NCCNC(=O)CC23CC4CC(CC(C4)C2)C3)c1)C(=O)CC12CC3CC(CC(C3)C1)C2`, the MIC in data set [1], in data set [3], in data set [4], in data set [5], in data set [6] and in data set [7] was 2 mg/L (≈ 1.88 µM) throughout. The compound further yielded a 50% haemolytic concentration (HC50) in data set [2] of 250 µg/mL. Also, in data set [8], the Activity was determined as 99.998%.
